The values below come from patent US10792232B2, “Methods to deliver antifibrinolytic drugs for anti-aging results” (MURDOCK TECHNOLOGIES, LLC, priority 2016, dated 2020).

Molecules are shown by their SMILES. Like-named read-outs stand apart in the source and are kept apart here.

The subject of one data set is surface of the face. To be noted: 1-2 ml of 10% solution applied daily to the face, over 14-21 days. From the text:
The present invention is based on the realization that the aging process and its physical effects on the skin and body involve the activation of a fibrinolytic process. […] The dosage of antifibrinolytic agent(s) should be less than 6 grams per day. […] A particularly advantageous manner of administration for topical delivery is by single use pre-impregnated towelettes applied to the area of the skin to be treated.

A further data set relates to dark patches of skin. The following applies: injected directly into affected area, sometimes with laser therapy, melasma patients; cited from earlier work.
In data set [1] the test system is mice that are bred to display skin dryness. The following applies: oral, 750 mg/kg/day over 20 days; cited from earlier work.
For data set [2] the following is noted: cited from earlier work.

On to `NC[C@H]1CC[C@H](C(=O)O)CC1` [tranexamic acid], for which, in the data set with surface of the face, the lines and wrinkles entry is “lines and wrinkles are fewer and less pronounced”; the overall skin tone entry is “improved”. For the same compound, in the data set with dark patches of skin, the “effect on dark patches of skin” value is listed as “lighten dark patches of skin”. For the same compound, the “effect on wrinkles caused by skin dryness” value in data set [1] is “amelioration effect on wrinkles specifically caused by skin dryness”. In addition, the “dose shown to induce seizures” value in data set [2] (equivalent of 80 mg/kg/day) was “approximately 6 grams per day”. Also, in data set [2] (in vivo), the “dose shown to induce seizures” value was > 80 mg/kg/day.
